Two molecules from US8633301B2, “Antitumor combinations containing antibodies recognizing specifically CD38 and vincristine” (Sanofi, priority 2008, dated 2014) can be followed below.

Values joined by “and” are separate entries in the source; they are usually repeats but may differ in a detail not shown here. Identical values can stand only once. “Also recorded” adds a separate entry of the source.

Data set [1] deals with human T-cell acute lymphoblastic leukemia (T-ALL) cell line, DND-41. Briefly: Antitumor efficacy against advanced DND-41 tumors implanted in SCID mice. The following applies: for T-C (tumor growth delay): time to reach 750 mg; for TFS (tumor free survivors): end of study day 160.
Experimental: A product is considered to be active if log10 cell kill is greater than or equal to 0.7. A product is considered to be very active if log10 cell kill is greater than or equal to 2.8.
The animals subjected to the experiment, generally mice, are subcutaneously grafted bilaterally with 30 to 60 mg of a tumor fragment on day 0. The animals bearing tumors are randomized based on their tumor size before being subjected to the various treatments and controls. Chemotherapy begins when tumors have reached a predetermined size after grafting, depending on the type of tumor, and the animals are observed every day. […] The groups are then weighed once or twice a week until the end of the trial.
The tumors are measured 1 to 5 times a week, depending on the tumor doubling time, until the tumor reaches approximately 2 g, or until the animal dies (if this occurs before the tumor reaches 2 g). The animals are necropsied immediately after euthanasia or death.
The selected tumor model was a transplantable human T-cell acute lymphoblastic leukemia (T-ALL) cell line, DND-41, implanted in SCID mice.
Vincristine was formulated in 5% glucose in water.
Tumor doubling time=3.4 days.
Data set [2] is described as follows: Toxicity (body weight change, drug death) in DND-41 tumor-bearing SCID mice. In kind it is in vivo.
The next data set concerns the target T1, murine CD38 (Mus musculus, UniProt P56528).
T1 sequence (P56528 1-304): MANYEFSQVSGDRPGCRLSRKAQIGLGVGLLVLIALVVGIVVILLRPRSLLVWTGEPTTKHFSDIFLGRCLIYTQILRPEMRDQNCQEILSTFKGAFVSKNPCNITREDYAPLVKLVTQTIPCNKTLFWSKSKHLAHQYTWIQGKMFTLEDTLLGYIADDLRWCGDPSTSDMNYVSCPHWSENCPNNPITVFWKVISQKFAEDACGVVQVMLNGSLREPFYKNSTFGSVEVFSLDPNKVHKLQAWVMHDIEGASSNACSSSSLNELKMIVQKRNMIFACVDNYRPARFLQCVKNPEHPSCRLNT
Briefly: Cross-reactivity of the antibody with murine CD38. In kind it is binding.

The mark [3] stands for this setting: vincristine alone 0.3 mg/kg/inj (total 1.2) IV.
The mark [4] stands for this setting: vincristine alone 0.3 mg/kg/inj IV.
[5] abbreviates: vincristine alone 0.5 mg/kg/inj (total 2.0) IV.
[6] abbreviates: vincristine alone 0.5 mg/kg/inj IV.
[7] abbreviates: vincristine alone 0.8 mg/kg/inj (total 3.2) IV.
Setting [8] is: vincristine alone 0.8 mg/kg/inj IV.
Setting [9] is: hu38SB19 alone 40.0 mg/kg/inj (total 160.0) IV days 18, 21, 24, 27.
Setting [10] is: hu38SB19 alone 40.0 mg/kg/inj IV.

Take `CC[C@]1(O)C[C@H]2CN(CCc3c([nH]c4ccccc34)[C@@](C(=O)OC)(c3cc4c(cc3OC)N(C=O)[C@H]3[C@@](O)(C(=O)OC)[C@H](OC(C)=O)[C@]5(CC)C=CCN6CC[C@]43[C@@H]65)C2)C1` [vincristine, Vincristine]: the log10 cell kill is listed as 1.4 in data set [1] (setting [3]), 3.8 in data set [1] (setting [5]) and 4.4 in data set [1] (setting [7]). The “T-C (tumor growth delay)” value amounted to 15.6 days in data set [1] (setting [3]), 43.3 days in data set [1] (setting [5]) and 49.6 days in data set [1] (setting [7]). Also, the “comments (activity/toxicity rating)” value in data set [1] (setting [4]) is on record as “remained active”; in data set [1] (setting [6]), “Highly active”; in data set [1] (setting [8]), “HNTD - Highly active”; in data set [2] (vincristine alone 1.3 mg/kg/inj IV), “Toxic (−25% BWC)”. The “TFS (tumor free survivors)” value was 0/6 in data set [1] (setting [4]); “no TFS and 0/6” in data set [1] (setting [6]); “no TFS and 0/6” in data set [1] (setting [8]). The “BWC (body weight change) at nadir” value in data set [2] (setting [3]) was −0.4%; in data set [2] (setting [5]), −5.3%; in data set [2] (setting [7]), −10.4%; in data set [2] (vincristine alone 1.3 mg/kg/inj (total 5.2) IV) it was −25.2%. Also, the drug death is 0/6 in data set [2] (vincristine alone 0.3 mg/kg/inj (total 1.2) IV days 18, 21, 24, 27); 0/6 in data set [2] (vincristine alone 0.5 mg/kg/inj (total 2.0) IV days 18, 21, 24, 27); 0/6 in data set [2] (vincristine alone 0.8 mg/kg/inj (total 3.2) IV days 18, 21, 24, 27); 0/6 in data set [2] (vincristine alone 1.3 mg/kg/inj (total 5.2) IV days 18, 21, 24, 27). Besides, the “body weight loss at nadir” value in data set [2] (vincristine alone 1.3 mg/kg/injection, nadir on day 27) was 25.2%. Also, the “highest nontoxic dose (HNTD)” value in data set [2] (vincristine alone IV days 18, 21, 24, 27, total injected dose 3.2 mg/kg) stood at 0.8 mg/kg/inj.
On to “hu38SB19: humanized anti-CD38 monoclonal antibody 38SB19; VH SEQ ID NO: 66, VL SEQ ID NO: 62 or 64”, for which the “cross-reactivity with murine CD38” value in the data set with murine CD38 is listed as “lack of cross-reactivity”. Further, in data set [1] (setting [9]), the log10 cell kill is on record as 0.5 and the “T-C (tumor growth delay)” value amounted to 6.1 days. Moreover, in data set [1] (setting [10]), the “comments (activity/toxicity rating)” value was “not active; also recorded: HDT- Inactive” and the “TFS (tumor free survivors)” value is reported as 0/6. The tolerability / toxicity result in data set [2] (hu38SB19 alone 40 mg/kg/inj) is recorded as “well tolerated”. Further, in data set [2] (setting [9]), the “BWC (body weight change) at nadir” value is −2.1% and the drug death is listed as 0/6.
